{
  "source": "patent US5155215A",
  "about": "“Polychelating agents for image and spectral enhancement (and spectral shift)” (priority 1990, dated 1992)",
  "key": {"[1]": {"settings": "precipitation at body pH; cited from earlier work"}, "[2]": {"settings": "cited from earlier work"}, "[3]": {"assay": "T1 of freshly excised rat spleens after injection", "format": "in vivo, Sprague-Dawley rats", "text": "Post-contrast images were obtained serially beginning immediately after the i.v. injection of contrast agents and continuing for several hours thereafter."}, "[4]": {"system": "human brain tumors; renal tumors", "settings": "cited from earlier work"}, "[5]": {"assay": "Liver T1 decrease / liver image enhancement, effective dose", "format": "in vivo, mice and rats", "settings": "30 min"}, "[6]": {"settings": "cited from earlier work", "remark": "listed apart in the source"}, "[7]": {"assay": "In vivo NMR enhancement of normal rat tissues, image T1 and enhancement (0.35 Tesla Diasonics)", "design": "species or system Sprague-Dawley rats", "source_text": "Sprague-Dawley rats were imaged using a 0.35-Tesla, Diasonics clinical MR imaging system and a 30-cm rf coil. Three clinically relevant pulse sequences were used: 1) spin-echo with a TR of 0.5 seconds (for T1-weighted images), 2) inversion-recovery (IR) (for T1-weighted images), and 3) spin-echo with a TR of 2.0 seconds (for T2-weighted images). Diasonics software was used to calculate the area-averaged tissue intensities before and after injection of contrast agents. Dual pulse sequences (spin-echo, with TR's of 0.5 and 1.5 seconds or 1.0 and 2.0 seconds) were also used to calculate the in vivo T1 relaxation times. At the conclusion of imaging, the liver, spleen and kidneys were excised and their T1 (IR) and T2 (Carr-Purcell-Meiboom-Gill) relaxation times were determined at 37° C., using an IBM pC20 Minispectroneter. For these in vitro experiments, uninjected rats were used in place of preinjection controls."}, "[8]": {"assay": "Whole-organ liver T1 after albumin microspheres", "format": "in vivo, CBA mice", "settings": "0.1 mmol/kg Gd, 30 min", "experimental": "Microspheres (Gd:DTPA:dimeglumine:albumin) were tested in vivo by injecting them intravenously into 25 gm CBA mice (2 animals per group), allowing 30 minutes for uptake and sequestration by liver Kupffer cells, sacrificing the mice, and testing the excised organs. […] Radioisotope was quantified in a standard gamma counter.\nThe T1-weighted proton relaxation times of mouse livers were quantified by determining the whole-organ T1 relaxation time in a 20 MHz NMR spectrometer."}, "[9]": {"assay": "In vitro T1 relaxation of water protons (IBM PC 20 Minispectrometer, 20 MHz)", "format": "physicochemical", "experimental": "Microspheres were suspended at a concentration of 1 mg/ml by brief sonification. Because albumin microspheres have a fast-release (surface) component of Gd:DTPA as well as a controlled-release (interior) component, the spheres were washed, resuspended, and diluted serially for testing.\nThus, it was not necessary to wash and resuspend the materials prior to NMR testing."}, "[10]": {"assay": "Proton T1 relaxation times in mouse organs (DEAE-dextran agents)", "format": "in vivo, CBA mice", "description": "Test materials were injected i.v. into 25 gm CBA mice. At 30 min the mice were sacrificed by decapitation (exsanguination) and the excised livers and kidneys assessed for changes in proton T1 relaxation times (20 MHz; IR pulse sequence). Doses of test materials were made equivalent based on in vitro potency (ID50 analysis)."}, "[11]": {"assay": "Enhanced T1-weighted blood flow images in cardiac chambers", "format": "in vivo, rats", "settings": "i.v., rat heart chambers", "experimental": "Gd:DTPA-dextran microspheres (at 0.03 mmoles Gd/kg) were injected i.v. at time zero into Sprayer-Dawley rats and images were obtained immediately and serially each 5 minutes×4 (spin-echo, multi-echo, TR=0.5 & 1.5)."}, "[12]": {"system": "7777-strain Morris hepatoma", "assay": "In vivo NMR image enhancement of a primary liver tumor (hepatoma)", "settings": "after injection", "experimental": "After two to three weeks the local tumors had reached an average diameter of 0.5 and 1.0 cm. The rats were then imaged both before and after i.v. injections of Gd-DTPA or microsphere Gd-DTPA. MR imaging was performed in a 30cm rf coil with a 0.35 Tesla, Diasonics clinical MRI system (as described above). Post-contrast images were obtained serially beginning immediately after injection and continuing for several hours thereafter."}, "[13]": {"assay": "MR imaging and proton T1 relaxation times in rats (DEAE-dextran agents)", "format": "in vivo, Sprague-Dawley rats", "settings": "Gd 0.30 (polymer, dimeglumine) or 0.15 (microspheres) mmol/kg", "description": "Test materials were injected intravenously into 500 gm Sprague-Dawley rats. at approximately 30 minutes, the rats were placed in the head coil of a 0.35 Tesla clinical imaging device (Diasonics Corp.), and T1-weighted images (using both a spin-echo pulse sequence at TR's of 0.5, 1.5 and 2.0, and an inversion recovery sequence) were obtained on image slices of 0.5 cm thickness taken through the liver and kidneys. T1 relaxation times were determined from the TR=0.5 and 2.0 data using area-averaging of signal intensities and a proprietary software program for calculations. At the completion of imaging, the rats were sacrificed by decapitation (exsanguination). Their livers, kidneys and spleens were excised, tested for in vitro correlations with the in vivo changes in proton T1 relaxation times and then placed in buffered formalin fixative for histopathologic evaluation."}},
  "data": [
    {"molecule": "[Gd]", "note": "[Gd, gadolinium]", "values": [
      {"measurement": "Toxicity of the free form", "setting": "[1]", "value": "quite toxic"},
      {"measurement": "Paramagnetic dipole", "setting": "[2]; Gd, seven unpaired 4f electrons", "value": 7.9, "unit": "Bohr magnetons"}
    ]},
    {"molecule": "CNC[C@H](O)[C@@H](O)[C@H](O)[C@H](O)CO.CNC[C@H](O)[C@@H](O)[C@H](O)[C@H](O)CO.O=C([O-])CN(CCN(CC(=O)[O-])CC(=O)O)CCN(CC(=O)[O-])CC(=O)O.[Gd+3]", "note": "[Gd:DTPA dimeglumine]", "values": [
      {"measurement": "% Decrease in T1 of Spleen (35 min post vs. pre)", "setting": "[3]", "value": 14.4, "unit": "%"},
      {"measurement": "Enhancement of renal tumors", "setting": "[4]; human, in vivo", "value": "enhanced satisfactorily"},
      {"measurement": "Enhancement of human brain tumors", "setting": "[4]; preliminary clinical results", "value": "almost all human brain tumors undergo significant enhancement"},
      {"measurement": "Change in liver T1's at the usual 30-minute imaging interval", "setting": "[5]", "value": "minimal changes in liver T1's"},
      {"measurement": "Relaxivity at higher proton Larmor frequencies", "setting": "[2]; typically 15 Mhz", "value": "marked decrease in relaxivity"},
      {"measurement": "Bloodstream clearance (1/2)", "setting": "[6]; Weinman et al.", "value": 20, "unit": "min"},
      {"measurement": "Quantity cleared by the kidneys", "setting": "[6]; Weinman et al.", "value": "> 90", "unit": "%"},
      {"measurement": "Imaging window", "setting": "[6]; in vivo", "value": "ca. 30 minutes"},
      {"measurement": "Number of optimal images after each injection", "setting": "[6]; in vivo", "value": "ca. 2"},
      {"measurement": "% Decrease in T1, kidney (30 min post vs. pre)", "setting": "[7]; kidney, 30 min, image T1", "value": 55.7, "unit": "%"},
      {"measurement": "Time after which all liver enhancement was lost", "setting": "[7]; liver", "value": 50, "unit": "min"},
      {"measurement": "% Decrease in T1, liver (30 min post vs. pre)", "setting": "[7]; liver, 30 min, image T1", "value": 24.6, "unit": "%"},
      {"measurement": "Bone marrow image enhancement", "setting": "[7]; visual inspection", "value": "not Gd:DTPA dimeglumine"},
      {"measurement": "Liver T1, % of Control", "setting": "[8]", "value": 98.5, "unit": "%"},
      {"measurement": "Liver T1", "setting": "[8]; saline 332", "value": 327, "unit": "ms"},
      {"measurement": "IC50", "setting": "[9]; Gd, read-out: ID50 as molar concentration of Gd", "value": 90, "unit": "µM"},
      {"measurement": "ID50 (total weight)", "setting": "[9]; T1 to 50% of phosphate-buffered saline", "value": 84, "unit": "µg/mL"},
      {"measurement": "Material concentration required to produce a 50% decrease in the T1 of water protons", "setting": "[9]; total material", "value": 90, "unit": "µg/mL"},
      {"measurement": "T1 (% of control), kidney", "setting": "[10]; kidney, 30 min, 0.23 mmol/kg DEAE agents, 0.47 mmol/kg Gd:DTPA dimeglumine, control 385 msec", "value": 24, "unit": "%"},
      {"measurement": "T1 (% of control), liver", "setting": "[10]; liver, 30 min, 0.23 mmol/kg DEAE agents, 0.47 mmol/kg Gd:DTPA dimeglumine, control 330 msec", "value": 83, "unit": "%"},
      {"measurement": "Effectiveness at decreasing the T1 of liver", "setting": "[10]; mouse liver, very high doses", "value": "relatively ineffective"},
      {"measurement": "Enhancement of blood flow images", "setting": "[11]", "value": "almost completely ineffective"},
      {"measurement": "Time by which tumor contrast was significantly reduced", "setting": "[12]", "value": 1.5, "unit": "h"},
      {"measurement": "T1 (% of control), kidney, in vitro", "setting": "[13]; excised kidney, control 492 msec", "value": 25, "unit": "%"},
      {"measurement": "T1 (% of control), liver, in vitro", "setting": "[13]; excised liver, control 275 msec", "value": 88, "unit": "%"},
      {"measurement": "T1 (% of control), spleen, in vitro", "setting": "[13]; excised spleen, control 464 msec", "value": 86, "unit": "%"},
      {"measurement": "T1 (% of control), kidney, in vivo", "setting": "[13]; kidney, imaging", "value": 57, "unit": "%"},
      {"measurement": "T1 (% of control), liver, in vivo", "setting": "[13]; liver, imaging", "value": 83, "unit": "%"}
    ]},
    {"molecule": "O=C(O)CN1CCN(CC(=O)O)CCN(CC(=O)O)CCN(CC(=O)O)CC1", "note": "[DOTA, 1,4,7,10-tetraazacyclododecane-N,N',N\"-tetraacetic acid]", "values": [
      {"measurement": "Relaxivity relative to Gd-DTPA", "setting": "[2]; wide range of Larmor frequencies", "value": "approximately 2 times greater"}
    ]}
  ]
}
